# Assay results as given in patent US11731977B2, “SGC stimulators” (Cyclerion Therapeutics, Inc., priority 2016, dated 2023).
# pEC50: −log10 of the molar value.
# What was measured:
# [1] = molecular target: T1, sGC enzyme (Homo sapiens, UniProt Q02108+Q02153); assay: cGMP GloSensor cell-based assay, 384-well format (Example 2a); settings: HEK293 GloSensor 40F cGMP cells; 10 μM DETA-NONOate; 50% of high control (30 μM Compound Y); read-out: Abs EC50
# T1 construct: sGC enzyme activity values in HEK cells, determined by the GloSensor assay; host or cells: HEK293 cells stably expressing GloSensor 40F cGMP biosensor
# T1 sequence (Q02153 1-619): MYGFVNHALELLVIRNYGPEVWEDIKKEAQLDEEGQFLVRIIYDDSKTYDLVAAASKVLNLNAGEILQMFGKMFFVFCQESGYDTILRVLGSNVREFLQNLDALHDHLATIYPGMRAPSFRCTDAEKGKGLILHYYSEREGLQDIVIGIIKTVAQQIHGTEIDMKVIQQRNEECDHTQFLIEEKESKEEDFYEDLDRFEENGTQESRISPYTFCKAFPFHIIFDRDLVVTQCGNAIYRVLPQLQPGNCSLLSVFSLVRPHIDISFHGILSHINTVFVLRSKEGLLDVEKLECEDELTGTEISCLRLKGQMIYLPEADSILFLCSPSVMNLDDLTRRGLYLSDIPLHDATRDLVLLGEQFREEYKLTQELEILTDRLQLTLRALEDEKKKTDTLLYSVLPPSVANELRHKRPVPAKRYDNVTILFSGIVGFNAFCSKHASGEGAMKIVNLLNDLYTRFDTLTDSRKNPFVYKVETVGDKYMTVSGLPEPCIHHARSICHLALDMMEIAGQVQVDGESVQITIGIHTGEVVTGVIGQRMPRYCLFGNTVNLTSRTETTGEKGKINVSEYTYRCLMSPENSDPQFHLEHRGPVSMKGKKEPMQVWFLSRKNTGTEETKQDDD
# T1 sequence (Q02108 1-690): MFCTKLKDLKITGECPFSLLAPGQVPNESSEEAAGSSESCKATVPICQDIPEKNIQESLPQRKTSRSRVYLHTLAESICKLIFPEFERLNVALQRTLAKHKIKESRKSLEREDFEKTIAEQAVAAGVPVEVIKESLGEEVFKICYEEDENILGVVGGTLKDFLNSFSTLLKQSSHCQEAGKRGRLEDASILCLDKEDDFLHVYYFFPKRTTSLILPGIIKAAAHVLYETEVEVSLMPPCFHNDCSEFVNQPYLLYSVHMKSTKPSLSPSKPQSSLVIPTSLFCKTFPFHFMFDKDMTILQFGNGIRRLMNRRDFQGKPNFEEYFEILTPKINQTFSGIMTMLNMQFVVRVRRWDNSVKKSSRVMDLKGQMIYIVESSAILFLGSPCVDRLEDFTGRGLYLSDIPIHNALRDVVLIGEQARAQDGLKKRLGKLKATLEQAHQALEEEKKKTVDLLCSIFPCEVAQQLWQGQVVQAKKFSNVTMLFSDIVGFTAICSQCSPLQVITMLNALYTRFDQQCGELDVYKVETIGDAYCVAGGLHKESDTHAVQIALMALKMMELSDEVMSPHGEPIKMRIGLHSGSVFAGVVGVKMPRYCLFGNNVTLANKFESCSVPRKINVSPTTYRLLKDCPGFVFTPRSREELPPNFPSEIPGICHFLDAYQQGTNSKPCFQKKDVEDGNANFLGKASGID
# Excerpt: Human embryonic kidney cells (HEK293) cells expressing GloSensor™ 40F cGMP (Part No: CS182801, Promega) were used to evaluate the activity of test compounds. The luminescent biosensors (engineered luciferase) that were incorporated into these cells detect cGMP formed by the compounds stimulating the sGC enzyme and emit luminescence.
# cGMP GloSensor cells were maintained in Dulbecco's Modification of Eagle's Medium (DMEM) supplemented with fetal bovine serum (FBS, 10% final) and hygromycine (200 ug/ml). The day before assay, cells were plated in DMEM with 10% FBS in a 50 μL volume at a density of 1.5×10^4 cells/well in a poly-D-lysine coated 384-well flat white-bottom plate (Corning Cat No 35661). Cells were incubated overnight at 37° C. in a humidified chamber with 5% CO2. The next day, medium was removed and cells were replaced with 40 ul/well of GloSensor™, 2 mM (Promega Cat No E1291). Cells were treated for 90 minutes at 25° C. to allow the substrate to equilibrate in the cells. Test compounds and Diethylenetriamine NONOate (DETA-NONOate, or DETA-NO) was diluted to 3 mM (20×) in serum-free CO2 independent medium and serially diluted at 4× dilutions to create 5× dose curve from which 10 ul was added to the wells (x μM concentration for test compound solution and 10 μM concentration for DETA-NONOate solution; wherein x is one of the following final concentrations: 30000 nM, 7500 nM, 1875 nM, 468.8 nM, 117.2 nM, 29.29 nM, 7.320 nM, 1.830 nM, 0.460 nM, 0.114 nM, and 0.029 nM).
# For the kinetics studies, luminescense was measured right away for 0.2 sec per well with Envision (Perkin Elmer). For endpoint SAR screening, data were collected after 55 min incubation at room temperature.
# Data were normalized to a high control using the following equation: 100*(Sample−Low Control)/(High Control−Low Control), where the low control is the average of 16 samples treated with 1% DMSO, and the high control is the average of 16 samples treated with 30 μM of Compound Y depicted below. Data were fit using a 4-parameter fit (log(agonist) vs. response—variable slope) using GraphPad Prism Software v.5. n=2 for all compounds. The Absolute (Abs) EC50 was interpolated from the curve fit and is defined as the concentration at which a given compound elicits 50% of the high control response after data normalization as indicated above. Compounds failing to elicit a minimum response of 50% are reported as >30 μM or ND. For compounds run in duplicate or n higher than 2, the result herein given is the geometric mean of the several results obtained.
# [2] = test system: cGMP in rat primary neurons; assay: cGMP neuronal cell-based assay (Example 3); settings: Primary neuron; rat primary hippocampal neurons; 30 μM DETA-NO; cGMP by LC-MS/MS; 50% of high control (10 μM Compound Y); read-out: Abs EC50
# Protocol: Rat primary neurons were isolated from fetuses of 18-day pregnant Sprague-Dawley females. The fetuses were collected in Hanks' balanced salt solution (HBSS) and brains were rapidly removed. The cerebral hippocampi were isolated and mechanically fragmented. Further tissue digestion was performed with 0.25% (wt/vol) trypsin solution in HBSS without Ca2+ and Mg2+ for 15 min at 37° C. After trypsination, cells were washed and resuspended in neurobasal medium supplemented with 0.5 mM L-glutamine, 12.5 uM glutamic acid, 2% B-27 and 100 U/mL penicillin, and 100 μg/mL streptomycin. Cells were plated at a density of 4×10^4 cells/well in a poly-D-lysine coated 384-well flat clear-bottom plate (Corning Cat No 354662). Cells were incubated 6-7 days at 37° C. in a humidified chamber with 5% CO2. Media was removed and cells were washed 1× with HBSS containing Ca2+ and Mg2+, and replaced with 40 uL HBSS containing 0.5 mM IBMX, and incubated for 15 minutes at 37° C. 10 uL of a 5× stock of test compounds with diethylenetriamine NONOate (DETA-NO) was added. Final concentration of DETA-NO was 30 μM. Cells were incubated for 20 min at 37° C. Medium was removed, 50 uL of ice-cold 10% acetic acid was added, and incubated for 60 minutes at 4° C. Following centrifugation at 4° C. for 5 minutes at 1000×g to pellet cell debris, the supernatant was aspirated to a clean plate and the samples were analyzed for cGMP content. cGMP concentrations were determined from each sample using LC-MS/MS.
# Data were normalized to a high control using the following equation: 100*(Sample−Low Control)/(High Control−Low Control), where the low control is the average of 15 samples treated with 1% DMSO, and the high control is the average of 15 samples treated with 10 μM a known sGC stimulator Compound Y. Data were fit using a 4-parameter fit (log(agonist) vs. response—variable slope) using GraphPad Prism Software v.5. n=2 for all compounds. The Absolute EC50 was interpolated from the curve fit and is defined as the concentration at which a given compound elicits 50% of the high control response. Compounds failing to elicit a minimum response of 50% are reported as >30 μM. For compounds run in duplicate or n higher than 2, the result herein given is the geometric mean of the several results obtained.
# [3] = Rat cerebrospinal fluid (CSF) pharmacokinetic properties (Example 4); type: in vivo; settings: male, Sprague-Dawley, 10 mg/kg PO, 1 h; for Kp uu at 1 h: unbound CSF/unbound plasma, read-out: Kp,uu (@ 1 h); for concentration at 1 h: CSF, read-out: CSF Conc. (nM @ 1 h)
# Protocol: Protocol PK in rats was determined following oral dosing. For the oral (PO) experiments, a group of 6 male Sprague-Dawley rats with an indwelling catheter placed in the cistema magna were used. The PO group was dosed with 10 mg/kg or 1 mg/kg of a compound formulated as a solution in PEG400. PO doses were administered by oral gavage and delivered to the stomach using a syringe and gavage tube. Following oral dosage administration, the gavage tube was flushed with approximately 0.5 mL of water to ensure complete delivery of the full dose.
# Plasma samples were collected as follows: samples of CSF and blood were collected at 1 hour, 2, and optionally at 4 hours post-dosing. CSF samples (0.05 mL) were collected through the intracisternal catheter. Blood samples (0.25 mL) were collected through retro-orbital sampling. These samples were kept on ice until processed for plasma. Blood samples were centrifuged at 3200 rpm for 5 minutes at approximately 5° C. within 1 hour of collection. Plasma was directly transferred to a 96-well plate tube (0.125 mL). Plug caps were placed on the tubes and the tubes frozen at approximately −70° C. and stored until analysis. Plasma was collected and analyzed for the presence of a compound.
# Quantitation of Compounds. The compound in question and the internal standard were extracted from plasma and CSF by precipitation. Samples were analyzed using liquid chromatography (LC) with tandem mass spectrometric detection (MS/MS) using electrospray ionization. The standard curve range was from 1 to 1000 ng/mL. Results of the compounds described herein in this assay are illustrated in Table 4a below (10 mg/kg dose) and Tables 4b and 4c below (1 mg/kg).
# Kp,uu is defined as the concentration ratio of unbound drug in CSF to unbound drug in plasma. Unbound drug in plasma (or free plasma concentration) is calculated by multiplying the total plasma concentration by the unbound fraction as determined by plasma protein binding. The CSF concentration is then divided by the free plasma concentration to determine the Kp,uu. (See e.g., Di et al., J. Med. Chem., 56, 2-12 (2013))
smiles,measurement,setting,value
"Fc1ccccc1Cc1nc(-c2nc(C(F)(F)C(F)(F)F)n[nH]2)cn2ccnc12 [Compound I-5, 8-(2-Fluorobenzyl)-6-(3-(perfluoroethyl)-1H-1,2,4-triazol-5-yl)imidazo[1,2-a]pyrazine]",pEC50,[1],≥ 7.00
same,pEC50,[2],≥ 7.00
"FC(F)(F)c1n[nH]c(-c2cn3ccnc3c(Cc3ccccc3)n2)n1 [Compound I-6, 8-Benzyl-6-(3-(trifluoromethyl)-1H-1,2,4-triazol-5-yl)imidazo[1,2-a]pyrazine]",pEC50,[1],6.00 to 7.00
same,pEC50,[2],≥ 7.00
"FC(F)c1n[nH]c(-c2cn3ccnc3c(Cc3ccccc3)n2)n1 [Compound I-7, 8-Benzyl-6-(3-(difluoromethyl)-1H-1,2,4-triazol-5-yl)imidazo[1,2-a]pyrazine]",pEC50,[1],6.00 to 7.00
same,pEC50,[2],6.00 to 7.00
"Fc1ccc(F)c(Cc2nc(-c3nc(C(F)(F)F)n[nH]3)cn3ccnc23)c1 [Compound I-8, 8-(2,5-Difluorobenzyl)-6-(3-(trifluoromethyl)-1H-1,2,4-triazol-5-yl)imidazo[1,2-a]pyrazine]",pEC50,[1],≥ 7.00
same,pEC50,[2],≥ 7.00
"Fc1ccc(F)c(Cc2nc(-c3nc(C(F)F)n[nH]3)cn3ccnc23)c1 [Compound I-9, 8-(2,5-Difluorobenzyl)-6-(3-(difluoromethyl)-1H-1,2,4-triazol-5-yl)imidazo[1,2-a]pyrazine]",pEC50,[1],≥ 7.00
same,pEC50,[2],≥ 7.00
"Fc1ccc(Cc2nc(-c3nc(C(F)(F)F)n[nH]3)cn3ccnc23)cc1 [Compound I-12, 8-(4-Fluorobenzyl)-6-(3-(trifluoromethyl)-1H-1,2,4-triazol-5-yl)imidazo[1,2-a]pyrazine]",pEC50,[1],6.00 to 7.00
same,pEC50,[2],6.00 to 7.00
"FC(F)(F)c1n[nH]c(-c2cn3ccnc3c(CCC(F)(F)C(F)(F)F)n2)n1 [Compound I-13, 8-(3,3,4,4,4-Pentafluorobutyl)-6-(3-(trifluoromethyl)-1H-1,2,4-triazol-5-yl)imidazo[1,2-a]pyrazine]",pEC50,[1],< 6.00
same,pEC50,[2],< 6.00
"FC(F)(F)c1n[nH]c(-c2cn3ncnc3c(Cc3ccccc3)n2)n1 [Compound I-15, 8-Benzyl-6-(3-(trifluoromethyl)-1H-1,2,4-triazol-5-yl)-[1,2,4]triazolo[1,5-a]pyrazine]",pEC50,[1],6.00 to 7.00
same,pEC50,[2],6.00 to 7.00
"Cc1ccc(Cc2nc(-c3nc(C(F)(F)F)n[nH]3)cn3ccnc23)cc1F [Compound I-27, 8-(3-Fluoro-4-methylbenzyl)-6-(3-(trifluoromethyl)-1H-1,2,4-triazol-5-yl)imidazo[1,2-a]pyrazine]",pEC50,[1],≥ 7.00
same,Kp uu at 1 h,[3],0.2
same,concentration at 1 h,[3],41 nM
"Cc1ccc(Cc2nc(-c3nc(C(F)F)n[nH]3)cn3ccnc23)cc1F [Compound I-28, 6-(3-(Difluoromethyl)-1H-1,2,4-triazol-5-yl)-8-(3-fluoro-4-methylbenzyl)imidazo[1,2-a]pyrazine]",pEC50,[1],≥ 7.00
same,Kp uu at 1 h,[3],0.2
same,concentration at 1 h,[3],20 nM
